Measured values as given in ChEMBL document CHEMBL5154816, “Structure-Based Discovery and Optimization of Furo[3,2-c]pyridin-4(5H)-one Derivatives as Potent and Second Bromodomain (BD2)-Selective Bromo and Extra Terminal Domain (BET) Inhibitors” (J Med Chem, 2022).

What was measured:
[1] = molecular target: T1, Bromodomain-containing protein 4 (Homo sapiens, UniProt O60885); assay: Inhibition of C-terminal His6-tagged BRD4 BD1 (unknown origin) using H-YSGRGK(Ac)GGK(Ac)GLGK(Ac)-GGAK(Ac)RHRK-Biotin-OH as substrate incubated for 1 hrs by HTRF assay
Homo sapiens = species on record: Homo sapiens; assay: Selectivity index, ratio of IC50 for BRD4 BD1 (unknown origin) to IC50 of BRD4 BD2 (unknown origin)
[2] = molecular target: T1, Bromodomain-containing protein 4; assay: Inhibition of C-terminal His6-tagged BRD4 BD2 (unknown origin) using H-YSGRGK(Ac)GGK(Ac)GLGK(Ac)-GGAK(Ac)RHRK-Biotin-OH as substrate incubated for 1 hrs by HTRF assay
[3] = Metabolic stability in rat liver microsomes assessed as half life at 1 uM measured up to 60 mins in presence of NADPH by HPLC-MS/MS analysis; format: ADME, Microsome
[4] = Metabolic stability in human liver microsomes assessed as half life at 1 uM measured up to 60 mins in presence of NADPH by HPLC-MS/MS analysis; format: ADME, Microsome
[5] = Metabolic stability in human liver microsomes assessed as intrinsic clearance at 1 uM measured up to 60 mins in presence of NADPH by HPLC-MS/MS analysis; format: ADME, Microsome; conditions: 1 h
[6] = Metabolic stability in rat liver microsomes assessed as intrinsic clearance at 1 uM measured up to 60 mins in presence of NADPH by HPLC-MS/MS analysis; format: ADME, Microsome; conditions: 1 h
[7] = Metabolic stability in rat hepatocytes assessed as hepatic clearance at 1 uM measured up to 60 mins in presence of NADPH by HPLC-MS/MS analysis; format: ADME, cell-based, Hepatocyte
[8] = Metabolic stability in human hepatocytes assessed as hepatic clearance at 1 uM measured up to 60 mins in presence of NADPH by HPLC-MS/MS analysis; format: ADME, cell-based, Hepatocyte
[9] = Metabolic stability in human hepatocytes assessed as hepatic extraction ratio at 1 uM measured up to 60 mins in presence of NADPH by HPLC-MS/MS analysis; format: ADME, cell-based, Hepatocyte; conditions: read-out: ERH
[10] = Metabolic stability in rat hepatocytes assessed as hepatic extraction ratio at 1 uM measured up to 60 mins in presence of NADPH by HPLC-MS/MS analysis; format: ADME, cell-based, Hepatocyte; conditions: read-out: ERH
[11] = Cytotoxicity against human HFL1 cells assessed as cell growth inhibition incubated for 72 hrs by Cell titre Glo-luminiscence cell viability assay; format: toxicity, cell-based
[12] = molecular target: SWI/SNF-related matrix-associated actin-dependent regulator of chromatin subfamily A member 2 (Homo sapiens) (UniProt P51531); assay: Binding affinity to SMARCA2A (unknown origin) assessed as change in melting temperature at 100 uM incubated for 30 mins by thermal shift assay
Sequence of SWI/SNF-related matrix-associated actin-dependent regulator of chromatin subfamily A member 2 (Homo sapiens) (P51531 whole entry): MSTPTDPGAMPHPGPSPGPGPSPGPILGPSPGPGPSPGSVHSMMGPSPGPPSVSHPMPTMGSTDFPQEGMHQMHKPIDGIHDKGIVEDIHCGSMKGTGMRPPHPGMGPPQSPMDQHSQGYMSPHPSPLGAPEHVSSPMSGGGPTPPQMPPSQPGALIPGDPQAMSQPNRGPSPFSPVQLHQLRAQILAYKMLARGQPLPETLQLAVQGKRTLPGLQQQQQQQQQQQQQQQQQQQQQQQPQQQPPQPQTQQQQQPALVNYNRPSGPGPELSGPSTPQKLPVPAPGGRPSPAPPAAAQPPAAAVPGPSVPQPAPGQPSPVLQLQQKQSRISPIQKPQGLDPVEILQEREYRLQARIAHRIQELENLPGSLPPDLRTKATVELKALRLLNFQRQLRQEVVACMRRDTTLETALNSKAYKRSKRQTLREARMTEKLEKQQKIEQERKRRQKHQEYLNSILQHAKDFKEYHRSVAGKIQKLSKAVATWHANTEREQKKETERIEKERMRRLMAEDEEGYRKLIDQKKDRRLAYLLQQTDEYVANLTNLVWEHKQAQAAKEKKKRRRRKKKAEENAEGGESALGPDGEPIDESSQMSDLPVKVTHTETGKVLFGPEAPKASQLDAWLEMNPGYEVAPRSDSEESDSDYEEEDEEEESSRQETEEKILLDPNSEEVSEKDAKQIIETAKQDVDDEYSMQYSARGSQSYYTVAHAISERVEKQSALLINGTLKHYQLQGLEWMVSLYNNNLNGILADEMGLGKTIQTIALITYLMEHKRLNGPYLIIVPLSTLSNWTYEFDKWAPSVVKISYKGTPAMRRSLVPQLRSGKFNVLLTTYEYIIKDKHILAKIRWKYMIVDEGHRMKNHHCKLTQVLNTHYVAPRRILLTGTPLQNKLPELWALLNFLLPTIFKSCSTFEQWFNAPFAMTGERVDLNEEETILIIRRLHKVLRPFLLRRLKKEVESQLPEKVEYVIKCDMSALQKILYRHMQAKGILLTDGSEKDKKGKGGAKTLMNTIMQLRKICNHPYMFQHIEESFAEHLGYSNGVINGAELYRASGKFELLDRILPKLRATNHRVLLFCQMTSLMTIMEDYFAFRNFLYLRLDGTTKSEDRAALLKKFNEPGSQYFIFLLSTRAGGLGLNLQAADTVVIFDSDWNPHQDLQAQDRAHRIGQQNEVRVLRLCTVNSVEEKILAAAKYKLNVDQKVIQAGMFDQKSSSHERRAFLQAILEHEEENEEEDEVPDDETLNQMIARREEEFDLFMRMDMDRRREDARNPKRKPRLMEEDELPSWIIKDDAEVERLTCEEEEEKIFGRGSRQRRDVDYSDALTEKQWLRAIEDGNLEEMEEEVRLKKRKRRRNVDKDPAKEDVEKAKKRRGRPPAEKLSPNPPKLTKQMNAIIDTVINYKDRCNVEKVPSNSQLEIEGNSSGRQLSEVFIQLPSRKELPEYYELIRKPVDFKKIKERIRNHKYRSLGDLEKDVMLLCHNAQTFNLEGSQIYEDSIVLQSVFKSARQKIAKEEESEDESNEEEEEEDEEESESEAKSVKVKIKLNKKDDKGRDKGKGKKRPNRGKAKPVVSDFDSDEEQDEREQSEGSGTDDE

[13] = molecular target: SWI/SNF-related matrix-associated actin-dependent regulator of chromatin subfamily A member 2 (Homo sapiens) (UniProt P51531); assay: Binding affinity to SMARCA2B (unknown origin) assessed as change in melting temperature at 100 uM incubated for 30 mins by thermal shift assay
[14] = molecular target: PH-interacting protein (Homo sapiens) (UniProt Q8WWQ0); assay: Binding affinity to PHIP-2 (unknown origin) assessed as change in melting temperature at 100 uM incubated for 30 mins by thermal shift assay

Row | Compound | IC50 [1] | Ratio IC50 (Homo sapiens) | IC50 [2] | also measured
1 | CCS(=O)(=O)Nc1ccc(Oc2ccc(F)cc2F)c(-c2cn(C)c(=O)c3cc(-c4cnc(C(C)C)[nH]4)oc23)c1 | 0.95 nM | 1.76 | 0.54 nM | –
2 | Cc1cc(F)cc(C)c1Oc1ccc(C(C)(C)O)cc1-c1cn(C)c(=O)c2cc(-c3cnc(C4CCOC4)[nH]3)oc12 (centres undefined) | 78 nM | 130 | 0.6 nM | –
3 | Cc1cc(F)cc(C)c1Oc1ccc(C(C)(C)O)cc1-c1cn(C)c(=O)c2cc(-c3cnc(C(C)C)[nH]3)oc12 | 192 nM | 282 | 0.68 nM | –
4 | CCS(=O)(=O)Nc1ccc(Oc2ccc(F)cc2F)c(-c2cn(C)c(=O)c3cc(-c4cc(C)c(CCCO)c(C)c4)oc23)c1 | 0.72 nM | 1.47 | 0.49 nM | –
5 | CCS(=O)(=O)Nc1ccc(Oc2ccc(F)cc2F)c(-c2cn(C)c(=O)c3cc(-c4cnc(C5CC5)[nH]4)oc23)c1 | 0.7 nM | 2.06 | 0.34 nM | –
6 | CCc1cccc(C)c1Oc1ccc(NS(=O)(=O)CC)cc1-c1cn(C)c(=O)c2cc(-c3cc(C)c(OCCO)c(C)c3)oc12 | 10 nM | 7.14 | 1.4 nM | –
7 | Cc1cc(-c2cc3c(=O)n(C)cc(-c4cc(CS(=O)(=O)C(C)C)ccc4Oc4ccc(F)cc4F)c3o2)cc(C)c1OCCO | 0.57 nM | 0.92 | 0.62 nM | –
8 | Cc1cc(-c2cc3c(=O)n(C)cc(-c4cc(C(C)(C)O)ccc4Oc4ccc(F)cc4F)c3o2)cc(C)c1OCCO | 1.57 nM | 3.5 | 0.45 nM | –
9 | CCCS(=O)(=O)Nc1ccc(Oc2ccc(F)cc2F)c(-c2cn(C)c(=O)c3cc(-c4cc(C)c(OCCO)c(C)c4)oc23)c1 | 0.94 nM | 1.54 | 0.65 nM | –
10 | Cc1cc(-c2cc3c(=O)n(C)cc(-c4cc(CS(=O)(=O)C(C)(C)C)ccc4Oc4ccc(F)cc4F)c3o2)cc(C)c1OCCO | 3.3 nM | 2.36 | 1.4 nM | –
11 | CCS(=O)(=O)Nc1ccc(Oc2c(F)cc(F)cc2F)c(-c2cn(C)c(=O)c3cc(-c4cc(C)c(OCCO)c(C)c4)oc23)c1 | 0.43 nM | 0.88 | 0.49 nM | –
12 | CCS(=O)(=O)Nc1ccc(Oc2ccc(F)cc2F)c(-c2cn(C)c(=O)c3cc(-c4cnc[nH]4)oc23)c1 | 1.2 nM | 2.35 | 0.51 nM | –
13 | CCS(=O)(=O)Nc1ccc(Oc2c(C)cc(F)cc2C)c(-c2cn(C)c(=O)c3cc(-c4cc(C)c(OCCO)c(C)c4)oc23)c1 | 6.5 nM | 8.12 | 0.8 nM | –
14 | Cc1cc(-c2cc3c(=O)n(C)cc(-c4cc(NC(=O)C5CC5)ccc4Oc4ccc(F)cc4F)c3o2)cc(C)c1OCCO | 6.8 nM | 2.12 | 3.2 nM | –
15 | O=C(c1ccc(F)cc1)C1CCN(CCn2c(=O)[nH]c3ccccc3c2=O)CC1 [KETANSERIN] | – | – | – | half-life at 1 µM [3]: 18.9 min; half-life at 1 µM [4]: 34 min; CLH [5]: 0.051 mL/min/g; CLH [6]: 0.131 mL/min/g; CLhep predicted at 1 µM [7]: 25 mL/min/kg; CLhep predicted at 1 µM [8]: 14.7 mL/min/kg; hepatic extraction ratio at 1 h, 1 µM [9]: 0.712; hepatic extraction ratio at 1 h, 1 µM [10]: 0.81
16 | CCS(=O)(=O)Nc1ccc(Oc2ccc(F)cc2F)c(-c2cn(C)c(=O)c3cc(-c4cc(C)c(OCCO)c(C)c4)oc23)c1 | 0.56 nM | 0.93 | 0.6 nM | IC50 at 72 h [11]: < 10 nM
17 | CCS(=O)(=O)Nc1ccc(Oc2c(OC)cccc2OC)c(-c2cn(C)c(=O)c3cc(-c4cc(C)c(OCCO)c(C)c4)oc23)c1 | 9.8 nM | 4.9 | 2 nM | –
18 | Cc1cc(-c2cc3c(=O)n(C)cc(-c4cc(NS(=O)(=O)C(C)C)ccc4Oc4ccc(F)cc4F)c3o2)cc(C)c1OCCO | 1.4 nM | 1.49 | 0.94 nM | –
19 | CCc1cccc(CC)c1Oc1ccc(NS(=O)(=O)CC)cc1-c1cn(C)c(=O)c2cc(-c3cc(C)c(OCCO)c(C)c3)oc12 | 61 nM | 6.29 | 9.7 nM | –
20 | CCS(=O)(=O)Nc1ccc(Oc2ccc(F)cc2F)c(-c2cn(C)c(=O)c3cc(-c4ccc(OCCO)cc4)oc23)c1 | 0.56 nM | 0.9 | 0.62 nM | –

Row | Compound | IC50 [1] | Ratio IC50 (Homo sapiens) | IC50 [2] | also measured
21 | Cc1cc(-c2cc3c(=O)n(C)cc(-c4cc(C(C)(C)O)ccc4Oc4c(C)cc(F)cc4C)c3o2)cc(C)c1OCCCO | 63 nM | 45 | 1.4 nM | –
22 | CCS(=O)(=O)Nc1ccc(Oc2ccc(F)cc2F)c(-c2cn(C)c(=O)c3cc(-c4cnc(C5CCC5)[nH]4)oc23)c1 | 2 nM | 2.13 | 0.94 nM | –
23 | CCS(=O)(=O)Nc1ccc(Oc2ccc(F)cc2F)c(-c2cn(C)c(=O)c3cc(-c4ccccc4)oc23)c1 | 2.4 nM | 1.6 | 1.5 nM | –
24 | CC(=O)Nc1ccc(Oc2ccc(F)cc2F)c(-c2cn(C)c(=O)c3cc(-c4cc(C)c(OCCO)c(C)c4)oc23)c1 | 0.52 nM | 0.63 | 0.83 nM | –
25 | CCC(=O)Nc1ccc(Oc2ccc(F)cc2F)c(-c2cn(C)c(=O)c3cc(-c4cc(C)c(OCCO)c(C)c4)oc23)c1 | 2.3 nM | 3.19 | 0.72 nM | –
26 | CCS(=O)(=O)Nc1ccc(Oc2ccc(F)cc2F)c(-c2cn(C)c(=O)c3cc(-c4cnc(C)[nH]4)oc23)c1 | 0.53 nM | 0.7 | 0.76 nM | –
27 | CCS(=O)(=O)Nc1ccc(Oc2ccc(F)cc2F)c(-c2cn(C)c(=O)c3cc(-c4cnc(C5CCCC5)[nH]4)oc23)c1 | 4.1 nM | 4.52 | 0.91 nM | –
28 | Cc1sc2c(c1C)C(c1ccc(Cl)cc1)=N[C@@H](CC(=O)OC(C)(C)C)c1nnc(C)n1-2 | – | – | – | ΔTm [12]: -0.25 °C; ΔTm [13]: 0.25 °C; ΔTm [14]: -1 °C
29 | Cc1cc(-c2cc3c(=O)n(C)cc(-c4cc(NS(=O)(=O)C5CC5)ccc4Oc4ccc(F)cc4F)c3o2)cc(C)c1OCCO | 1 nM | 1 | 1 nM | –
30 | Cc1cc(F)cc(C)c1Oc1ccc(C(C)(C)O)cc1-c1cn(C)c(=O)c2cc(-c3cnc(C4CCOCC4)[nH]3)oc12 | 60 nM | 130 | 0.46 nM | –
31 | CCS(=O)(=O)Nc1ccc(Oc2ccc(F)cc2F)c(-c2cn(C)c(=O)c3cc(-c4ccc(CCCO)cc4)oc23)c1 | 0.75 nM | 1.83 | 0.41 nM | –
32 | CCS(=O)(=O)Nc1ccc(Oc2ccc(F)cc2F)c(-c2cn(C)c(=O)c3cc(-c4cc(C)cc(C)c4)oc23)c1 | 6.1 nM | 1.65 | 3.7 nM | –
33 | Cc1cc(-c2cc3c(=O)n(C)cc(-c4cc(CO)ccc4Oc4ccc(F)cc4F)c3o2)cc(C)c1OCCO | 4.1 nM | 4.18 | 0.98 nM | –
34 | CCc1ncc(-c2cc3c(=O)n(C)cc(-c4cc(NS(=O)(=O)CC)ccc4Oc4ccc(F)cc4F)c3o2)[nH]1 | 1.2 nM | 2.4 | 0.5 nM | –
35 | CCS(=O)(=O)Nc1ccc(Oc2c(C)cccc2C)c(-c2cn(C)c(=O)c3cc(-c4cc(C)c(OCCO)c(C)c4)oc23)c1 | 6 nM | 4.62 | 1.3 nM | –
36 | Cc1cc(-c2cc3c(=O)n(C)cc(-c4cc(NC(=O)C(C)C)ccc4Oc4ccc(F)cc4F)c3o2)cc(C)c1OCCO | 7.8 nM | 4.11 | 1.9 nM | –
37 | CCc1ncc(-c2cc3c(=O)n(C)cc(-c4cc(C(C)(C)O)ccc4Oc4c(C)cc(F)cc4C)c3o2)[nH]1 | 121 nM | 202 | 0.6 nM | –
38 | CCS(=O)(=O)Nc1ccc(Oc2ccc(F)cc2F)c(-c2cn(C)c(=O)cc2OCc2ccccc2)c1 | – | – | 0.92 nM | –
39 | Cc1cc(-c2cc3c(=O)n(C)cc(-c4cc(NS(C)(=O)=O)ccc4Oc4ccc(F)cc4F)c3o2)cc(C)c1OCCO | 0.39 nM | 0.51 | 0.76 nM | –
40 | CCS(=O)(=O)Cc1ccc(Oc2ccc(F)cc2F)c(-c2cn(C)c(=O)c3cc(-c4cc(C)c(OCCO)c(C)c4)oc23)c1 | 0.33 nM | 0.6 | 0.55 nM | –
